Where a name gives a salt, the structure may show the parent alone.
Test system: angiotensin II (AII) vasopressor response
Assay: AII challenge: antagonism of the vasopressor response of angiotensin II in conscious Okamoto-Aoki SHR
Format: in vivo, rat (Okamoto-Aoki SHR)
Details: for inhibition in vivo at 5 mg/kg / inhibition in vivo at 30 mg/kg / inhibition in vivo at 1 mg/kg / inhibition in vivo at 2 mg/kg: Rattus norvegicus; for inhibition in vivo at 5 mg/kg: po, 5 mg/kg oral
Excerpt: Conscious Male Okamoto-Aoki SHR, 16-20 weeks old, weighing approximately 330 g are purchased from Charles River Labs (Wilmington, Mass.). Conscious rats are restrained in a supine position with elastic tape. The area at the base of the tail is locally anesthetized by subcutaneous infiltration with 2% procaine. The ventral caudal artery and vein are isolated, and a cannula made of polyethylene (PE) 10-20 tubing (fused together by heat) is passed into the lower abdominal aorta and vena cava, respectively. The cannula is secured, heparinized (1,000 I.U./ml), sealed and the wound is closed. The animals are placed in plastic restraining cages in an upright position. The cannula is attached to a Statham P23Db pressure transducer, and pulsatile blood pressure is recorded to 10-15 minutes with a Gould Brush recorder.
Angiotensin II (human sequence, Sigma Chem. Co., St. Louis, Mo.) of 0.05 and 0.1 ug/kg i.v. is injected into all rats (predosing response). Then a test compound, vehicle or a known angiotensin II antagonist is administered i.v., i.p. or orally to each set of rats. […] The vasopressor response of angiotensin II is measured for the increase in systolic blood pressure in mmHg. The percentage of antagonism or blockade of the vasopressor response of angiotensin II by a compound is calculated using the vasopressor response (increase in systolic blood pressure) of angiotensin II of each rat predosing the compound as 100%.

SMILES: CCCCc1nc2ccc(C(C)(C)O)cc2c(=O)n1Cc1ccc(-c2ccccc2-c2nnn[nH]2)cc1 [Example 51, 2-butyl-6-(1-hydroxy-1-methylethyl)-3-[[2'-(1H-tetrazol-5-yl)-[1,1'-biphenyl]-4-yl]methyl]-4(3H)-quinazolinone]
- inhibition in vivo at 5 mg/kg (0.5 h, AII .05 ug/kg, 30 min): 30%
- inhibition in vivo at 5 mg/kg (0.5 h, AII .1 ug/kg, 30 min): 26%
- inhibition in vivo at 5 mg/kg (1.5 h, AII .05 ug/kg, 90 min): 75%
- inhibition in vivo at 5 mg/kg (1.5 h, AII .1 ug/kg, 90 min): 55%
- inhibition in vivo at 5 mg/kg (2.5 h, AII .05 ug/kg, 150 min): 63%
- inhibition in vivo at 5 mg/kg (2.5 h, AII .1 ug/kg, 150 min): 46%

SMILES: CCCCc1nc2ccccc2c(=O)n1Cc1ccc(-c2ccccc2-c2nnn[nH]2)cc1 [Example 50]
- Response change (systolic BP increase to AII) (30 mg/kg iv, AII .05 ug/kg, 90 min): 30 mmHg
- inhibition in vivo at 30 mg/kg (iv, 0.5 h, 30 mg/kg iv, AII .05 ug/kg, 30 min): 82%
- inhibition in vivo at 30 mg/kg (iv, 0.5 h, 30 mg/kg iv, AII .1 ug/kg, 30 min): 76%
- inhibition in vivo at 30 mg/kg (iv, 1.5 h, 30 mg/kg iv, AII .05 ug/kg, 90 min): 29%
- inhibition in vivo at 30 mg/kg (iv, 1.5 h, 30 mg/kg iv, AII .1 ug/kg, 90 min): 52%
- inhibition in vivo at 30 mg/kg (iv, 2.5 h, 30 mg/kg iv, AII .05 ug/kg, 150 min): 41%
- inhibition in vivo at 30 mg/kg (iv, 2.5 h, 30 mg/kg iv, AII .1 ug/kg, 150 min): 48%

SMILES: CCCCc1nc2ccc(C(C)(C)O)cc2c(=O)n1Cc1ccc(-c2ccccc2-c2nnn[nH]2)cc1 [Example 61, 2-Butyl-6-(1-hydroxy-1-methylethyl)-3-[[2'-(1H-(tetrazol-5-yl) [1,1'-biphenyl]-4-yl]methyl]-4(3H)-quinazolinone monosodium salt]
- Response change (systolic BP increase to AII) (1 mg/kg iv, AII .05 ug/kg, 30 min): 40 mmHg
- Response change (systolic BP increase to AII) (1 mg/kg iv, AII .05 ug/kg, 45 min): 25 mmHg
- Response change (systolic BP increase to AII) (1 mg/kg iv, AII .05 ug/kg, 90 min): 45 mmHg
- Response change (systolic BP increase to AII) (1 mg/kg iv, AII .1 ug/kg, 30 min): 55 mmHg
- Response change (systolic BP increase to AII) (1 mg/kg iv, AII .1 ug/kg, 45 min): 40 mmHg
- Response change (systolic BP increase to AII) (1 mg/kg iv, AII .1 ug/kg, 90 min): 65 mmHg
- Response change (systolic BP increase to AII) (2 mg/kg iv, AII .025 ug/kg, 30 min): 0 mmHg
- Response change (systolic BP increase to AII) (2 mg/kg iv, AII .025 ug/kg, 90 min): 0 mmHg
- Response change (systolic BP increase to AII) (2 mg/kg iv, AII .025 ug/kg, 150 min): 0 mmHg
- Response change (systolic BP increase to AII) (2 mg/kg iv, AII .05 ug/kg, 30 min): 0 mmHg
- Response change (systolic BP increase to AII) (2 mg/kg iv, AII .05 ug/kg, 90 min): 0 mmHg
- Response change (systolic BP increase to AII) (2 mg/kg iv, AII .05 ug/kg, 120 min): 25 mmHg
- Response change (systolic BP increase to AII) (2 mg/kg iv, AII .05 ug/kg, 180 min): 40 mmHg
- Response change (systolic BP increase to AII) (2 mg/kg iv, AII .1 ug/kg, 30 min): 0 mmHg
- Response change (systolic BP increase to AII) (2 mg/kg iv, AII .1 ug/kg, 90 min): 0 mmHg
- Response change (systolic BP increase to AII) (2 mg/kg iv, AII .1 ug/kg, 120 min): 50 mmHg
- Response change (systolic BP increase to AII) (2 mg/kg iv, AII .1 ug/kg, 180 min): 45 mmHg
- inhibition in vivo at 1 mg/kg (0.5 h, 1 mg/kg iv, AII .05 ug/kg, 30 min): 20%
- inhibition in vivo at 1 mg/kg (0.75 h, 1 mg/kg iv, AII .05 ug/kg, 45 min): 50%
- inhibition in vivo at 2 mg/kg (2.5 h, 2 mg/kg iv, AII .05 ug/kg, 150 min): 30%
- inhibition in vivo at 1 mg/kg (iv, 0.5 h, 1 mg/kg iv, AII .1 ug/kg, 30 min): 8%
- inhibition in vivo at 2 mg/kg (iv, 0.5 h, 2 mg/kg iv, AII .025 ug/kg, 30 min): 100%
- inhibition in vivo at 2 mg/kg (iv, 0.5 h, 2 mg/kg iv, AII .05 ug/kg, 30 min): 100%
- inhibition in vivo at 2 mg/kg (iv, 0.5 h, 2 mg/kg iv, AII .1 ug/kg, 30 min): 100%
- inhibition in vivo at 1 mg/kg (iv, 0.75 h, 1 mg/kg iv, AII .1 ug/kg, 45 min): 33%
- inhibition in vivo at 1 mg/kg (iv, 1.5 h, 1 mg/kg iv, AII .05 ug/kg, 90 min): 10%
- inhibition in vivo at 1 mg/kg (iv, 1.5 h, 1 mg/kg iv, AII .1 ug/kg, 90 min): 8%
- inhibition in vivo at 2 mg/kg (iv, 1.5 h, 2 mg/kg iv, AII .025 ug/kg, 90 min): 100%
- inhibition in vivo at 2 mg/kg (iv, 1.5 h, 2 mg/kg iv, AII .05 ug/kg, 90 min): 100%
- inhibition in vivo at 2 mg/kg (iv, 1.5 h, 2 mg/kg iv, AII .1 ug/kg, 90 min): 100%
- inhibition in vivo at 2 mg/kg (iv, 2 h, 2 mg/kg iv, AII .05 ug/kg, 120 min): 50%
- inhibition in vivo at 2 mg/kg (iv, 2 h, 2 mg/kg iv, AII .1 ug/kg, 120 min): 17%
- inhibition in vivo at 2 mg/kg (iv, 2.5 h, 2 mg/kg iv, AII .025 ug/kg, 150 min): 100%
- inhibition in vivo at 2 mg/kg (iv, 2.5 h, 2 mg/kg iv, AII .05 ug/kg, 150 min): 100%
- inhibition in vivo at 2 mg/kg (iv, 3 h, 2 mg/kg iv, AII .05 ug/kg, 180 min): 20%
- inhibition in vivo at 2 mg/kg (iv, 3 h, 2 mg/kg iv, AII .1 ug/kg, 180 min): 25%

Reference: US5405849A, “Angiotensin II receptor blocking 2,3,6 substituted quinazolinones” (American Cyanamid Company, priority 1993, dated 1995)
